Reference: patent US11008572B2, “Methods and compositions for modulating splicing” (SKYHAWK THERAPEUTICS, INC., priority 2017, dated 2021)
Where two headings read alike, the source gives them in different places.

Tests used:
Format in all cases: cell-based
[1] = test system: A673 cells; assay: Dose-response cell proliferation, crystal violet assay, 72 h; settings: ratio of IC50 in NHDF cells to IC50 in A673 cells
Method: Small molecule splicing modulators were tested in a dose-response assay using A673 cells and NHDF cells.
A673 cells or NHDF cells were first plated in 96-well plastic tissue culture plates (10,000 cells per well). The cells were treated with vehicle alone (DMSO), or increasing concentrations of SMSM compounds for 72 h. Following treatment, cell proliferation was determined using a crystal violet assay. The relative cell proliferation at each concentration was determined.

[2] = test system: FOXM1^A2 mRNA and FOXM1^BC mRNA; assay: Splicing assay (FOXM1), qPCR of isoform mRNAs; settings: for IC50: FoxM1 BC mRNA decrease (exon included)
Method in brief: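 Cells (20,000/well) treated at plating with compound, 8-point 4-fold series from 10 μM, 0.2% DMSO, 24 h at 37° C. Isoform mRNAs quantified by RT-qPCR against plasmid standards, normalized to PPIA and DMSO control; isoform ratio computed per concentration.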

[3] = test system: A-673 cells; assay: Cell viability, crystal violet staining; settings: Homo sapiens
Method in brief: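 Readout is absorbance at 570 nm of crystal violet, taken up in 0.1 M sodium citrate in 50% ethanol after staining with 0.5% dye in 25% methanol. Plates held 5×10^3 cells per well, and compounds were added one day after seeding for 72 hours. Data are relative to vehicle, mean±SE.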

[4] = Splicing (IC50), Example 22; settings: spliced gene and cells not stated
Method: A-673 cell viability […], splicing (IC50) and brain AUC/Plasma AUC of SMSMs were determined. As shown in the tables below SMSMs had high CNS exposure.

[5] = test system: SMN2^FL mRNA; assay: SMN2 splicing assay, real-time quantitative PCR, SMA type I patient cells (GM03813); settings: Homo sapiens, 24 hours
Method: (§1) Various cells lines were treated with the SMSMs described herein. RNA was then isolated, cDNA synthesized, qPCR performed and the levels of various mRNA targets of the SMSMs were determined. In some instances, RNA was isolated, cDNA synthesized, qPCR performed and the levels of mRNA isoforms in the various cell samples were determined.
(§2) SMA type I patient cells (GM03813 (Coriell))
(§3) On the day of the experiment, a 96-well plate was seeded with the cell lines of interest. The cells were diluted with full growth media to a concentration of 2.0×10^5 cells/mL and 100 μL of cells were added to each well (20,000 cells per well). The cells were treated with a compound immediately after plating.
(§4) The compounds were then added to the cell plate using the HP compound dispenser. In the initial experiment, a top concentration of 10 μM and an 8 point 4-fold dilution scheme was used. The stock compounds were made at a concentration of 5 mM, and the DMSO concentration was set to 0.2%. DMSO was used to normalize all the compound-containing wells and the untreated cells.
(§5) The treated cells were incubated at 37° C. in a 5% CO2 incubator for the desired amount of time. Plates were placed in a plastic bag with a wet paper towel to prevent evaporation.
(§6) RNA was isolated using the Cells to CT kit (ThermoFisher, AM1728). The cells were washed once with 100 μL cold PBS. 50 μL of lysis buffer was added to each well/tube (49.5 μL lysis buffer+0.5 μL DNase I per well/tube). The lysis reaction was mixed and incubated at room temperature for 5 minutes. 5 μL of stop solution was added directly into each cell lysis reaction and mixed by pipetting up and down 5 times. The plates/tubes were incubated at room temperature for 2 minutes then placed on ice if the cDNA synthesis was to be performed immediately. Otherwise, the plates/tubes were stored at −80° C.
(§7) cDNA synthesis reactions were then performed. 40 μL RT master mix was added to PCR tubes or plate wells. 10 μL of RNA was added to each tube/well. The RT thermal cycler program was then run and tubes or plate wells were incubated at 37° C. for 1 hour, then at 95° C. for 5 minutes to deactivate the enzyme.
(§8) The qPCR was performed using a QuantStudio 6instrument (ThermoFisher) and the following cycling conditions and according to the tables below. All samples and standards were analyzed in triplicate. Cycle 1: 2 minutes at 50° C. Cycle 2: 10 minutes at 95′C. Cycle 3 (repeat 40 times): 15 seconds at 95° C., 1 minute at 60° C.
(§9) The determined SMN2^Δ7 and SMN2^FL quantities were then be used to determine the SMN2^Δ7:SMN2^FL ratio at the various compound concentrations. The PPIA quantities were used in the normalization to account of cell proliferation effects of the compounds.
(§10) An assay to measure the SMN2^FL mRNA and SMN2^Δ7 mRNA simultaneously in cell wells was performed. The RNA values were measured relative to DMSO control and also included a housekeeping gene, PPIA to ensure data was consistent. The mRNA values were measured after 24 hours of incubation with the SMSM compounds.
(§11) Additionally, to monitor expression levels of SMN2 splice variant using real-time quantitative PCR, SMA type I patient cells (GM03813 (Coriell)) were plated at 5,000 cells/well in 200 μl Dulbecco's modified Eagle's medium (DMEM) with GlutaMAX and 10% fetal bovine serum (FBS) (Life Technologies, Inc.) in 96-well plates, and incubated for 6 hours in a cell culture incubator. Cells were then treated with SMSMs at different concentrations (0.5% DMSO) in duplicate for 24 hours. After removal of the supernatant, cells were lysed in Cells-To-Ct lysis buffer (Life Technologies, Inc.) according to the manufacturer's recommendations. The mRNA levels of SMN2 FL, SMN2 A7 were quantified using Taqman-based RT-qPCR and SMN2-specific primers and probes. The SMN2 forward and reverse primers were each used at a final concentration of 0.4 μM. The SMN2 probe was used at a final concentration of 0.1 μM. […]

[6] = test system: SMN2^Δ7 mRNA; assay: as above; settings: Homo sapiens, 24 hours
Method: as §1, §2, §3, §4, §5, §6, §7, §8, §9, §10, §11

[7] = test system: IKBKAP^FL mRNA; assay: IKBKAP splicing assay, qPCR; settings: 24 hours of incubation
Method: (§12) Various cells lines were treated with the SMSMs described herein. RNA was then isolated, cDNA synthesized, qPCR performed and the levels of IKBKAP targets of the SMSMs were determined.
as §3, §4, §5, §6, §7
as §8, with “6 instrument” for “6instrument”, “95° C.” for “95′C.”
(§13) The determined IKBKAP^FL and […] isoform quantities were then used to determine the IKBKAP^FL: IKBKAP^Δ20 ratio at increasing SMSM compound concentrations. The PPIA quantities were used in the normalization to account of cell proliferation effects of the compounds.
as §10, with “IKBKAP^FL” for “SMN2^FL”, “IKBKAP^Δ20” for “SMN2^Δ7”

[8] = test system: IKBKAP^Δ20 mRNA; assay: IKBKAP splicing assay, qPCR; settings: 24 hours of incubation
Method: as §12, §3, §4, §5, §6, §7
as §8, with “6 instrument” for “6instrument”, “95° C.” for “95′C.”
as §13
as §10, with “IKBKAP^FL” for “SMN2^FL”, “IKBKAP^Δ20” for “SMN2^Δ7”

[9] = 24 h, 0.1-1000 nM, 24 hours, read-out: Splice IC50 (nM), FoxM1 BC mRNA decrease (exon included)
[10] = FoxM1 A mRNA increase (exon excluded), 0.1-1000 nM, 24 hours, read-out: Splice EC50 (nM), FoxM1 A mRNA increase (exon excluded)
[11] = A673, cell viability, read-out: A-673 IC50 (nM), Cell viability
[12] = read-out: Splice IC50 (nM) FoxM1 BC mRNA decrease (exon included)
[13] = read-out: Splice EC50 (nM) FoxM1 A mRNA increase (exon excluded)
[14] = A673, cell viability, read-out: A-673 IC50 (nM) Cell viability

Structure (SMILES)	IC50 [2, 9] [nM]	EC50 [2, 10] [nM]	IC50 [3, 11] [nM]	IC50 [4] [µM]	IC50 [2, 12] [nM]	EC50 [2, 13] [nM]	IC50 [3, 14] [nM]	EC50 [7] [µM]	IC50 [8] [µM]	other results
CC(/C=C/C(=O)NO)=C\[C@@H](C)C(=O)c1ccc(N(C)C)cc1 [Trichostatin A]										Ratio NHDF/A673 IC50 [1]: ≤10
Cc1nnn(-c2ccc(-c3ccc(O[C@@H]4C[C@H]5CC[C@@H](C4)N5)nn3)c(O)c2)n1 [compound 258, 2-(6-(((1R,3s,5S)-8-azabicyclo[3.2.1]octan-3-yl)oxy)pyridazin-3-yl)-5-(5-methyl-2H-tetrazol-2-yl)phenol]	101 to 250	10 to 100	251 to 500	0.149						
CN(c1ccc(-c2cc(F)c(-c3ccn(C)c(=O)c3)cc2O)nn1)[C@H]1C[C@]2(C)CC[C@](C)(C1)N2 [compound 169, 4-(4-(6-(((1R,3s,5S)-1,5-dimethyl-8-azabicyclo[3.2.1]octan-3-yl)(methyl)amino)pyridazin-3-yl)-2-fluoro-5-hydroxyphenyl)-1-methylpyridin-2(1H)-one]				< 0.001	< 10	> 1000	< 10			IC50 ([3]; A673, read-out: A-673 cell viability (IC50)): ≤ 5 nM
Cc1nnnn1-c1ccc(-c2ccc(O[C@@H]3C[C@H]4CC[C@@H](C3)N4)nn2)c(O)c1 [compound 257, 2-(6-(((1R,3s,5S)-8-azabicyclo[3.2.1]octan-3-yl)oxy)pyridazin-3-yl)-5-(5-methyl-1H-tetrazol-1-yl)phenol]			> 1000	0.121						
COc1cc(-c2ccc(-c3ccc(N(C)[C@@H]4C[C@H]5CCC[C@@H](C4)N5)nn3)c(O)c2)ccn1 [compound 289, 2-(6-(((1R,3s,5S)-9-azabicyclo[3.3.1]nonan-3-yl)(methyl)amino)pyridazin-3-yl)-5-(2-methoxypyridin-4-yl)phenol]			< 10							EC50 [5]: 0.004 µM; IC50 [6]: 0.004 µM
Oc1cc(-n2nccn2)ccc1-c1ccc(O[C@@H]2C[C@H]3CC[C@@H](C2)N3)nn1 [compound 251, 2-(6-(((1R,3s,5S)-8-azabicyclo[3.2.1]octan-3-yl)oxy)pyridazin-3-yl)-5-(2H-1,2,3-triazol-2-yl)phenol]	101 to 250	10 to 100	251 to 500	0.15						
Oc1cc(-n2ccnc2)ccc1-c1ccc(O[C@@H]2C[C@H]3CC[C@@H](C2)N3)nn1 [compound 245, 2-(6-(((1R,3s,5S)-8-azabicyclo[3.2.1]octan-3-yl)oxy)pyridazin-3-yl)-5-(1H-imidazol-1-yl)phenol]	101 to 250	10 to 100	501 to 1000	0.03						
CN(c1ccc(-c2ccc(-c3ccn(C)c(=O)c3)cc2O)nn1)[C@@H]1C[C@H]2CC[C@@H](C1)N2 [compound 240, 4-(4-(6-(((1R,3s,5S)-8-azabicyclo[3.2.1]octan-3-yl)(methyl)amino)pyridazin-3-yl)-3-hydroxyphenyl)-1-methylpyridin-2(1H)-one]	< 10	< 10	10 to 100					0.101 to 0.35	0.201 to 1	
C[C@]12CC[C@](C)(C[C@@H](Oc3ccc(-c4ccc(-c5cn[nH]c5)cc4O)nn3)C1)N2 [compound 152, 2-(6-(((1R,3s,5S)-1,5-dimethyl-8-azabicyclo[3.2.1]octan-3-yl)oxy)pyridazin-3-yl)-5-(1H-pyrazol-4-yl)phenol]					10 to 100	10 to 100	101 to 250	0.351 to 1	> 1	
CN(c1ccc(-c2cc(F)c(-c3cn[nH]c3)cc2O)nn1)[C@@H]1C[C@H]2CC[C@@H](C1)N2 [compound 161, 2-(6-(((1R,3s,5S)-8-azabicyclo[3.2.1]octan-3-yl)(methyl)amino)pyridazin-3-yl)-4-fluoro-5-(1H-pyrazol-4-yl)phenol]					< 10	< 10	< 10	< 0.1	< 0.2	
